Test results as given in ChEMBL document CHEMBL3352264, “Synthesis and structure-activity relationships of new carbonyl guanidine derivatives as novel dual 5-HT₂B and 5-HT₇ receptor antagonists. Part 2” (Bioorg Med Chem, 2014).
Active and inactive are the calls of the source. No cut-off for these calls is given here.

Assays:
[1] = biological target: T1, 5-hydroxytryptamine receptor 2B (Homo sapiens, UniProt P41595); assay: Displacement of [3H]Mesulergine from human 5-HT2B receptor expressed in HEK293-EBNA cells by liquid scintillation counting; type: cell-based
T1 sequence (P41595 whole entry): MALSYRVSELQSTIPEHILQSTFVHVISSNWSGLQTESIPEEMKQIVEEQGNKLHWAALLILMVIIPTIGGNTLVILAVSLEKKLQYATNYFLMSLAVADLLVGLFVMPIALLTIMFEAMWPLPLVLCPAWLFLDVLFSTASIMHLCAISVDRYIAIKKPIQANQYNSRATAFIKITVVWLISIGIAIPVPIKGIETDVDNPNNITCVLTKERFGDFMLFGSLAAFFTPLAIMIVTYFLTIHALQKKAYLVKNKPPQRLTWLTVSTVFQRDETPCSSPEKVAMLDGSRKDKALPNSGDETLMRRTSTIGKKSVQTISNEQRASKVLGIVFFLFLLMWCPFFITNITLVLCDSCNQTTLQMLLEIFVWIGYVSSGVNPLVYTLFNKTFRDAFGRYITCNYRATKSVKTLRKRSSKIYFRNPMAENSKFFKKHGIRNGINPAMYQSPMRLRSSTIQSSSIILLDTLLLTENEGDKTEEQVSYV

[2] = biological target: T2, 5-hydroxytryptamine receptor 7 (Homo sapiens, UniProt P34969); assay: Displacement of [3H]HT from human 5-HT7 receptor expressed in CHO cells by liquid scintillation counting; type: cell-based
T2 sequence (P34969 whole entry): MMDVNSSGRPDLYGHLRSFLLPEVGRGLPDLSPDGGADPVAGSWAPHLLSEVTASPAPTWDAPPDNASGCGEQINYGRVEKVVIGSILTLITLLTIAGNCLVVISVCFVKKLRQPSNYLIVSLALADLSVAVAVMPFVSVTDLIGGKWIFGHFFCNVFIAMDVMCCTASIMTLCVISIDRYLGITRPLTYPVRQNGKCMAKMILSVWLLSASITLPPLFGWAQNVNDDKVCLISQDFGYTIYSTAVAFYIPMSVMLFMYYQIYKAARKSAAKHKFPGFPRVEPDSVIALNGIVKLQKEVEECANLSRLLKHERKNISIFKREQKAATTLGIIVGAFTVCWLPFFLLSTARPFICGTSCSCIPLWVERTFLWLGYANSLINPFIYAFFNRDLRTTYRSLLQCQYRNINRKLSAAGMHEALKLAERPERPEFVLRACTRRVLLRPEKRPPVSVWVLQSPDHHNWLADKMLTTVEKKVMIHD

Mus musculus [3] = assay: Reversal of 5-carboxamidotryptamine-incued hypothermia in po dosed ddY mouse measured after 60 mins of treatment; type: functional; details: 1 h, read-out: MED
[4] = biological target: 5-hydroxytryptamine receptor 2A (Homo sapiens, UniProt P28223); assay: Binding affinity to 5-HT2A receptor (unknown origin)
5-hydroxytryptamine receptor 2A, sequence (P28223 whole entry): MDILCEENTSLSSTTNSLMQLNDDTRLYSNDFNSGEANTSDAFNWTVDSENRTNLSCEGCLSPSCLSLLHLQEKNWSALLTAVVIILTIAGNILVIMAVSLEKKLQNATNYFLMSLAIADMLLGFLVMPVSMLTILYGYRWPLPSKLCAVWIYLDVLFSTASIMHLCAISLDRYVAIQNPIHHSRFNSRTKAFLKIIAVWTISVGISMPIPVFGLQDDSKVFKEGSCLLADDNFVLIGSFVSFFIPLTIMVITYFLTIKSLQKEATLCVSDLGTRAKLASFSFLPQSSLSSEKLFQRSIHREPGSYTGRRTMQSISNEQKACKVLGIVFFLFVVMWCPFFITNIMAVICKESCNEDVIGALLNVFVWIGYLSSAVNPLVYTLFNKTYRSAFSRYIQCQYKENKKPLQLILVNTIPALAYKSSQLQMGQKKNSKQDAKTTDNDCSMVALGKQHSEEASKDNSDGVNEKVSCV

[5] = biological target: T3, 5-hydroxytryptamine receptor 2C (Homo sapiens, UniProt P28335); assay: Binding affinity to 5-HT2C receptor (unknown origin)
T3 sequence (P28335 whole entry): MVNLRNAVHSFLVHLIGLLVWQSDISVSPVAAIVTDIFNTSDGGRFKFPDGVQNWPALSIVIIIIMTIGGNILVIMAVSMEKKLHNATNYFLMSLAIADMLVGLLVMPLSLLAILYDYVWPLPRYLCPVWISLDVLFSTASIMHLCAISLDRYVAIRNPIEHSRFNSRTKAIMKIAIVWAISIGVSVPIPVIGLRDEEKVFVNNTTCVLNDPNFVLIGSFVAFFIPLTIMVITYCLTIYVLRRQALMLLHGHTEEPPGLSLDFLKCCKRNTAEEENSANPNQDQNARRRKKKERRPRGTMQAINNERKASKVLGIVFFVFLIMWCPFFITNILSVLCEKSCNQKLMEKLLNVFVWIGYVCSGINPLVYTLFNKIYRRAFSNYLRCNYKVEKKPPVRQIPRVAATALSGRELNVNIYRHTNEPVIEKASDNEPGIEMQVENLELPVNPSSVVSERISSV

[6] = biological target: T4, Adrenergic receptor alpha-1 (Homo sapiens, UniProt P35348+P25100+P35368); assay: Binding affinity to alpha-1 adrenergic receptor (unknown origin)
T4 sequence (P35348 whole entry): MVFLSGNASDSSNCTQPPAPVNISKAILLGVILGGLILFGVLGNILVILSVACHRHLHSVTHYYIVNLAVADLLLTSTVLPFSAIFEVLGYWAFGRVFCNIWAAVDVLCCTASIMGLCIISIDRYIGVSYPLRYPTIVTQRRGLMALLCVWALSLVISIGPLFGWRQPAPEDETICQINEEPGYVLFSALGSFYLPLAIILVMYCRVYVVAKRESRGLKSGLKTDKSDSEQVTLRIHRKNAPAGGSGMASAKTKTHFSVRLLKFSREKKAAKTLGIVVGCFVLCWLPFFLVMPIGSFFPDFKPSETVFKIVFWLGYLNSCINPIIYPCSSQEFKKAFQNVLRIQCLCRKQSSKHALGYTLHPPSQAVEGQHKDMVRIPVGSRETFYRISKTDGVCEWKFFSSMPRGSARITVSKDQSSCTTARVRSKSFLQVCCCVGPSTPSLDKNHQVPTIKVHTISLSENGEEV
T4 sequence (P25100 whole entry): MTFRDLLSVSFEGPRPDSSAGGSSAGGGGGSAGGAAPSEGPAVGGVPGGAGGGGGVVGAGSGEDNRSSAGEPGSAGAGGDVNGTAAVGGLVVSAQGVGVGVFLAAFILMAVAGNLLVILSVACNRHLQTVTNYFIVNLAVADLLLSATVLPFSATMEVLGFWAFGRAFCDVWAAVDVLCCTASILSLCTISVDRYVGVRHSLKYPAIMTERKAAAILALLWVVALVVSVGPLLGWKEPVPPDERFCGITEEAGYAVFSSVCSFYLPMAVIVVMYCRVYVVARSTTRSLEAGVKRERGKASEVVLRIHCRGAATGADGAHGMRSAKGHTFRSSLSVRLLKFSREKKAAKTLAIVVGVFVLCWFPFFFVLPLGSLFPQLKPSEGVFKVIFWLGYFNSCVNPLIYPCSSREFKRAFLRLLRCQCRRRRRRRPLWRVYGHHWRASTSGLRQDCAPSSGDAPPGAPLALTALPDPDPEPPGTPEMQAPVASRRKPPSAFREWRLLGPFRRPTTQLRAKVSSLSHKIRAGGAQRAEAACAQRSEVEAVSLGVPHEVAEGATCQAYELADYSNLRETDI
T4 sequence (P35368 whole entry): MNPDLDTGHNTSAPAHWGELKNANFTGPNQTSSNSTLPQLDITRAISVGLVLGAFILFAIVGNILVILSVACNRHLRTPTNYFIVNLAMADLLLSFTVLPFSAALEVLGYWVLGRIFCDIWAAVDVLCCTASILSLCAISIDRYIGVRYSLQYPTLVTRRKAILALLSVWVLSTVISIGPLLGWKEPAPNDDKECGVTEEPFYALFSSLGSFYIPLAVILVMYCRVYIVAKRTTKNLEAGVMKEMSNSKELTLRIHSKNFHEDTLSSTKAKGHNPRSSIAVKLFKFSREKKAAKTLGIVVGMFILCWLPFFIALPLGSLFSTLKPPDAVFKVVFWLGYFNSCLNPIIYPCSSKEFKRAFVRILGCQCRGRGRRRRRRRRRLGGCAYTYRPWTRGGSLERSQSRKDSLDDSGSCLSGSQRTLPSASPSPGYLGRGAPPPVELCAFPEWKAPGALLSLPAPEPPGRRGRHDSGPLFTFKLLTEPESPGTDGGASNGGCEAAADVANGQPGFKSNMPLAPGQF

D(2) dopamine receptor = D(2) dopamine receptor (Homo sapiens, UniProt P14416); assay: Binding affinity to dopamine D2 receptor (unknown origin)
D(2) dopamine receptor, sequence (P14416 whole entry): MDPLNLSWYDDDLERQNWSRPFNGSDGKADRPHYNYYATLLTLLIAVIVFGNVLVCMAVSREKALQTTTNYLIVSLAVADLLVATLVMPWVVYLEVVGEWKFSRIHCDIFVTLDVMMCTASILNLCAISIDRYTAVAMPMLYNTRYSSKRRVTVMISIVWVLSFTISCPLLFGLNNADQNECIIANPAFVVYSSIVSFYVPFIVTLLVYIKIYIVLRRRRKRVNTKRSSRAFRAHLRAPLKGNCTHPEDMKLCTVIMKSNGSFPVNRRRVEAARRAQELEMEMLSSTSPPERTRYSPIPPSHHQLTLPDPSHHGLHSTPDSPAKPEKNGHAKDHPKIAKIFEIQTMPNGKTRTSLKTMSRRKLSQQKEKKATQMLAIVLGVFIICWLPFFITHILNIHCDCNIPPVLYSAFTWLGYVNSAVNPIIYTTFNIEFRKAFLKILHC

[7] = biological target: T5, Muscarinic acetylcholine receptor M1 (Homo sapiens, UniProt P11229); assay: Binding affinity to muscarinic M1 receptor (unknown origin)
T5 sequence (P11229 whole entry): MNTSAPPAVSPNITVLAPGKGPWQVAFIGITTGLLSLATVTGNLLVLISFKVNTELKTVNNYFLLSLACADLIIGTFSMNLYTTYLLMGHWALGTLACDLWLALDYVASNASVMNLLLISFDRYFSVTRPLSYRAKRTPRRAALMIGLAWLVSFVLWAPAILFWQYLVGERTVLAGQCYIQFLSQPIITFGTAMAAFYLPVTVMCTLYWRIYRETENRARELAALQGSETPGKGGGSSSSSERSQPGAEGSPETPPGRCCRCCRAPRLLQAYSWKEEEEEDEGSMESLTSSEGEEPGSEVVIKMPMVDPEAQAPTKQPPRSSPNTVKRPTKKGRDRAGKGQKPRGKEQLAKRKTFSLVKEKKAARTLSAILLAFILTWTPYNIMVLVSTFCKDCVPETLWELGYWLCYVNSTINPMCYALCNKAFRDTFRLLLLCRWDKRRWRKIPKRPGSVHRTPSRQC

[8] = biological target: T1, 5-hydroxytryptamine receptor 2B; assay: Inhibition of human 5-HT2B receptor expressed in HEK293-EBNA cells assessed as [3H]PI metabolism by liquid scintillation counting; type: cell-based
[9] = biological target: T2, 5-hydroxytryptamine receptor 7; assay: Inhibition of human 5-HT7 receptor expressed in CHO cells assessed as cAMP production by EIA system; type: functional, cell-based
Cavia porcellus [10] = assay: Suppression of 5-HT-induced dural plasma protein extravasation in po dosed Hartley guinea pig after 16 hrs; type: functional, organism-based
Cavia porcellus [11] = assay: Suppression of 5-HT-induced dural plasma protein extravasation in Hartley guinea pig at 30 mg/kg, po after 16 hrs; type: functional, organism-based; set-up: dose 30 mg/kg
Mus musculus [12] = assay: Hypothermic effect in po dosed ddY mouse measured after 60 mins of treatment; type: ADME, organism-based; details: in vivo, 1 h

Structure (SMILES)	Ki [1] [nM]	Ki [2] [nM]	other results
NC(N)=NC(=O)c1ccc2c(c1)C(N)c1ccccc1-2 (stereo not given)	18	43	–
NC(N)=NC(=O)c1ccc2c(c1)C(O)c1ccccc1-2 (stereo not given)	–	–	minimal effective dose (Mus musculus [3]): > 30 mg/kg
NC(N)=NC(=O)c1ccc2c(c1)C(O)c1cccc(CO)c1-2 (stereo not given)	6.6	41	–
Cc1cccc2c1-c1ccc(C(=O)N=C(N)N)cc1C2(C)O.Cl (stereo not given)	1.1	4	minimal effective dose (Mus musculus [3]): > 30 mg/kg
CC1(O)c2ccccc2-c2ccc(C(=O)N=C(N)N)cc21.Cl (stereo not given)	4.3	4.3	minimal effective dose (Mus musculus [3]): 30 mg/kg; Ki [4]: > 1000 nM; Ki [5]: 390 nM; Ki [6]: > 1000 nM; Ki (D(2) dopamine receptor): > 1000 nM; Ki [7]: > 1000 nM; IC50 [8]: 52 nM; IC50 [9]: 59 nM; inhibition (Cavia porcellus [10]): Dose-dependent effect; inhibition (Cavia porcellus [11]): Active
COCc1cccc2c1-c1ccc(C(=O)N=C(N)N)cc1C2O (stereo not given)	6.3	50	–
CC1c2ccccc2-c2ccc(C(=O)N=C(N)N)cc21.Cl (stereo not given)	4.4	4.1	Activity (Mus musculus [12]): Toxic
NC(N)=NC(=O)c1ccc2c(c1)C(O)c1cc(Cl)ccc1-2 (stereo not given)	1.7	> 1000	–
Cc1cccc2c1-c1ccc(C(=O)N=C(N)N)cc1C2O.Cl (stereo not given)	0.81	14	Activity (Mus musculus [12]): Toxic
NC(N)=NC(=O)c1ccc2c(c1)C(O)c1c(Cl)cccc1-2 (stereo not given)	0.11	33	–
CCc1cccc2c1-c1ccc(C(=O)N=C(N)N)cc1C2O (stereo not given)	1.6	4.1	minimal effective dose (Mus musculus [3]): > 30 mg/kg
CCc1cccc2c1-c1ccc(C(=O)N=C(N)N)cc1C2(C)O.Cl (stereo not given)	0.71	2.3	minimal effective dose (Mus musculus [3]): > 30 mg/kg
NC(N)=NC(=O)c1ccc2c(c1)C(O)c1cccc(Cl)c1-2 (stereo not given)	1.5	41	–
Cc1cccc2c1C(O)c1cc(C(=O)N=C(N)N)ccc1-2 (stereo not given)	0.67	87	–
NC(N)=NC(=O)c1ccc2c(c1)C(O)c1ccc(Cl)cc1-2 (stereo not given)	11	160	–
CC(=O)NC1c2ccccc2-c2ccc(C(=O)N=C(N)N)cc21 (stereo not given)	34	180	–
N=C(N)NC(=O)c1ccc2c(c1)C(F)c1ccccc1-2 (stereo not given)	0.9	57	–
NC(N)=NC(=O)c1ccc2c(c1)C(O)c1cccc(F)c1-2 (stereo not given)	0.91	29	–
